Assay results: article PMC5290327, “SC83288 is a clinical development candidate for the treatment of severe malaria” (Nature Communications, 2017)

Tests used:
Test in all cases: KINOMEscan
Format in all cases: binding
Settings in all cases: read-out: Remaining enzyme activity
ABL1(F317L) = target: T1, ABL1(F317L) (Homo sapiens, UniProt P00519, F317L)
T1 construct: purchased Ambit (DiscoverX) KINOMEscan; Cerep
Outline: (§1)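 Immobilized ligand beads, biotin-blocked and washed in SeaBlock buffer with BSA, Tween 20 and DTT, are incubated with DNA-tagged kinase and 10 μM SC81458. Compound occupying the active site lowers bead-bound kinase, which is quantified by qPCR of the tag.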

AMPK-alpha2 = target: T2, AMPK-alpha2 (Homo sapiens, UniProt P54646)
T2 construct: purchased Ambit (DiscoverX) KINOMEscan; Cerep
Outline: as §1

ANKK1 = target: T3, ANKK1 (Homo sapiens, UniProt Q8NFD2)
T3 construct: purchased Ambit (DiscoverX) KINOMEscan; Cerep
Outline: as §1

BLK = target: T4, BLK (Homo sapiens, UniProt P51451)
T4 construct: purchased Ambit (DiscoverX) KINOMEscan; Cerep
T4 sequence (P51451 whole entry): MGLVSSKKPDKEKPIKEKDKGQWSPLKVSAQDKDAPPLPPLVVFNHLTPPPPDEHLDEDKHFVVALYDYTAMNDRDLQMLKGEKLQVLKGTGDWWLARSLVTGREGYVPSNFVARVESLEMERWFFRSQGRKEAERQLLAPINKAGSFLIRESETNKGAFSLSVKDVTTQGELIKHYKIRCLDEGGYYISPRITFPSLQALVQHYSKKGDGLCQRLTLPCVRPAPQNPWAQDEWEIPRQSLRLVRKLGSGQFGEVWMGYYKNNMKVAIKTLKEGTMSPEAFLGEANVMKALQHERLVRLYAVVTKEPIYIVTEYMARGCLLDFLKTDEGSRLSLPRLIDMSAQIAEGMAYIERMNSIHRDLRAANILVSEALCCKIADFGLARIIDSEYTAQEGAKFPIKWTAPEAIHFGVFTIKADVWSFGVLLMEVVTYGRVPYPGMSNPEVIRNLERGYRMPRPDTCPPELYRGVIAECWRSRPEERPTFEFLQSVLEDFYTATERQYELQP
Outline: as §1

BRSK2 = target: T5, BRSK2 (Homo sapiens, UniProt Q8IWQ3)
T5 construct: purchased Ambit (DiscoverX) KINOMEscan; Cerep
Outline: as §1

BTK = target: T6, BTK (Homo sapiens, UniProt Q06187)
T6 construct: purchased Ambit (DiscoverX) KINOMEscan; Cerep
Outline: as §1

CAMK1g = target: T7, CAMK1g (Homo sapiens, UniProt Q96NX5)
T7 construct: purchased Ambit (DiscoverX) KINOMEscan; Cerep
Outline: as §1

CDK3 = target: T8, CDK3 (Homo sapiens, UniProt Q00526)
T8 construct: purchased Ambit (DiscoverX) KINOMEscan; Cerep
Outline: as §1

CDKL3 = target: T9, CDKL3 (Homo sapiens, UniProt Q8IVW4)
T9 construct: purchased Ambit (DiscoverX) KINOMEscan; Cerep
T9 sequence (Q8IVW4 whole entry): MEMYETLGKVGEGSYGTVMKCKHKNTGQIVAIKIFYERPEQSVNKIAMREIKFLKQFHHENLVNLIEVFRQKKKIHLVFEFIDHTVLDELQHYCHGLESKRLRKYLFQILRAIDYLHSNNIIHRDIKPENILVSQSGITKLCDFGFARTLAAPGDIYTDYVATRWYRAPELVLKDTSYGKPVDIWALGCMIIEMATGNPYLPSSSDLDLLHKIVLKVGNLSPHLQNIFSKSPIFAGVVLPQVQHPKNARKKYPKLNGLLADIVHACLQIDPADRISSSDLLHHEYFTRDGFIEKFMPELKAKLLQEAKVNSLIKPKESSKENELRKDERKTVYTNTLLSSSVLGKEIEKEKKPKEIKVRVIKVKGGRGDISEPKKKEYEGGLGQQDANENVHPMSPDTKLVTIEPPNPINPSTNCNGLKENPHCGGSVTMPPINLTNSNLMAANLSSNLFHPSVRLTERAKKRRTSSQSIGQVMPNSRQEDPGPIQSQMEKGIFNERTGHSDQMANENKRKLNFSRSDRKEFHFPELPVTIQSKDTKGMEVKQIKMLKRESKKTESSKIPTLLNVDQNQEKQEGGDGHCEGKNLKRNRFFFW
Outline: as §1

DAPK3 = target: T10, DAPK3 (Homo sapiens, UniProt O43293)
T10 construct: purchased Ambit (DiscoverX) KINOMEscan; Cerep
Outline: as §1

DDR2 = target: T11, DDR2 (Homo sapiens, UniProt Q16832)
T11 construct: purchased Ambit (DiscoverX) KINOMEscan; Cerep
Outline: as §1

EGFR(G719S) = target: T12, EGFR(G719S) (Homo sapiens, UniProt P00533, G719S)
T12 construct: purchased Ambit (DiscoverX) KINOMEscan; Cerep
Outline: as §1

EPHB3 = target: T13, EPHB3 (Homo sapiens, UniProt P54753)
T13 construct: purchased Ambit (DiscoverX) KINOMEscan; Cerep
Outline: as §1

FER = target: T14, FER (Homo sapiens, UniProt P16591)
T14 construct: purchased Ambit (DiscoverX) KINOMEscan; Cerep
Outline: as §1

GAK = target: T15, GAK (Homo sapiens, UniProt O14976)
T15 construct: purchased Ambit (DiscoverX) KINOMEscan; Cerep
T15 sequence (O14976 whole entry): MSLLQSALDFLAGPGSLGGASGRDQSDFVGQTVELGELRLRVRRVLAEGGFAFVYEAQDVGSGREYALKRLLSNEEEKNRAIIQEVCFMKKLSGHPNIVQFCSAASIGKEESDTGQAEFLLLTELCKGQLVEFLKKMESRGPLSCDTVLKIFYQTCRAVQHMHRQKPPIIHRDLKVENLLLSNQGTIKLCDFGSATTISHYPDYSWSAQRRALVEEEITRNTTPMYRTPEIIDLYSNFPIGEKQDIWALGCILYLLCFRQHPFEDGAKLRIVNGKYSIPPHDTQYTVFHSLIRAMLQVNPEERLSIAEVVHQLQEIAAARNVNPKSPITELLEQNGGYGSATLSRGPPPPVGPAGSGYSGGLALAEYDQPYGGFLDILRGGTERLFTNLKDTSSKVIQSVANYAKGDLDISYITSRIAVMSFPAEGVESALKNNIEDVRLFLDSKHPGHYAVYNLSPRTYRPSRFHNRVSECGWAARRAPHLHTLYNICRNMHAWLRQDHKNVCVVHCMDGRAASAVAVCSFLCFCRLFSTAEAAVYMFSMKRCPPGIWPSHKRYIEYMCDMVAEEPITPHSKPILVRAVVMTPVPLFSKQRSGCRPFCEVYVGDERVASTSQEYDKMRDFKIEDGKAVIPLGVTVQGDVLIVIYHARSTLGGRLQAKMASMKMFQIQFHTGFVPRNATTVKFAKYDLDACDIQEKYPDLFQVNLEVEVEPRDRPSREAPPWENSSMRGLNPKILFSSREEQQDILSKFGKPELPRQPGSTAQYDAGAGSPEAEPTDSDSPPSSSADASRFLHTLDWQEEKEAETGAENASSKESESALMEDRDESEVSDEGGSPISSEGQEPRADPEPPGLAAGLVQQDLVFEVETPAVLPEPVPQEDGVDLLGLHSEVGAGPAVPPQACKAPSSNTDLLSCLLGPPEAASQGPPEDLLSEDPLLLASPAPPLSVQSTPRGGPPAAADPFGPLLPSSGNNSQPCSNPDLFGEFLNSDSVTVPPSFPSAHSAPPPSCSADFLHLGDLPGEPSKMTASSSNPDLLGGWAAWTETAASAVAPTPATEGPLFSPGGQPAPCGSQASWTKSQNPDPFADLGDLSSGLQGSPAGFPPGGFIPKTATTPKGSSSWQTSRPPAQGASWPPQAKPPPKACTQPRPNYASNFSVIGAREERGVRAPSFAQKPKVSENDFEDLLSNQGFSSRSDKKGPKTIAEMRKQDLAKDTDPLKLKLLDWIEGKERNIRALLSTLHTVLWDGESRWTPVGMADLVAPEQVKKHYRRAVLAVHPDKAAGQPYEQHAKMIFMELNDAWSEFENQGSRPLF
Outline: as §1

HCK = target: T16, HCK (Homo sapiens, UniProt P08631)
T16 construct: purchased Ambit (DiscoverX) KINOMEscan; Cerep
Outline: as §1

LATS2 = target: T17, LATS2 (Homo sapiens, UniProt Q9NRM7)
T17 construct: purchased Ambit (DiscoverX) KINOMEscan; Cerep
Outline: as §1

LCK = target: T18, LCK (Homo sapiens, UniProt P06239)
T18 construct: purchased Ambit (DiscoverX) KINOMEscan; Cerep
Outline: as §1

MAP3K15 = target: T19, MAP3K15 (Homo sapiens, UniProt Q6ZN16)
T19 construct: purchased Ambit (DiscoverX) KINOMEscan; Cerep
Outline: as §1

MAP4K4 = target: T20, MAP4K4 (Homo sapiens, UniProt O95819)
T20 construct: purchased Ambit (DiscoverX) KINOMEscan; Cerep
Outline: as §1

MARK1 = target: T21, MARK1 (Homo sapiens, UniProt Q9P0L2)
T21 construct: purchased Ambit (DiscoverX) KINOMEscan; Cerep
Outline: as §1

MEK1 = target: T22, MEK1 (Homo sapiens, UniProt Q02750)
T22 construct: purchased Ambit (DiscoverX) KINOMEscan; Cerep
T22 sequence (Q02750 whole entry): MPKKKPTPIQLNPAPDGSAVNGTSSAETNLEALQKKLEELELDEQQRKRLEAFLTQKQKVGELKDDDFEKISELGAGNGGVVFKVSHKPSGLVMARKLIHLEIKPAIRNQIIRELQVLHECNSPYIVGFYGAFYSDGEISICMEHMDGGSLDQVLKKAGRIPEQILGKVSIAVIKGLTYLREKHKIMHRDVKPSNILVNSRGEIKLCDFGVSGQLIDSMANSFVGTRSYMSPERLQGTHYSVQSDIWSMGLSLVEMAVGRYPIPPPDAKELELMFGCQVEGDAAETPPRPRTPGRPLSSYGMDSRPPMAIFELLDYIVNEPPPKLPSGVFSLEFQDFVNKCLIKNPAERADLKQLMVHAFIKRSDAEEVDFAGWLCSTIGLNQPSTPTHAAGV
Outline: as §1

MINK = target: T23, MINK (Homo sapiens, UniProt Q8N4C8)
T23 construct: purchased Ambit (DiscoverX) KINOMEscan; Cerep
Outline: as §1

MRCKB = target: T24, MRCKB (Homo sapiens, UniProt Q9Y5S2)
T24 construct: purchased Ambit (DiscoverX) KINOMEscan; Cerep
Outline: as §1

MST2 = target: T25, MST2 (Homo sapiens, UniProt Q13188)
T25 construct: purchased Ambit (DiscoverX) KINOMEscan; Cerep
Outline: as §1

MUSK = target: T26, MUSK (Homo sapiens, UniProt O15146)
T26 construct: purchased Ambit (DiscoverX) KINOMEscan; Cerep
Outline: as §1

NLK = target: T27, NLK (Homo sapiens, UniProt Q9UBE8)
T27 construct: purchased Ambit (DiscoverX) KINOMEscan; Cerep
Outline: as §1

PAK7 = target: T28, PAK7 (Homo sapiens, UniProt Q9P286)
T28 construct: purchased Ambit (DiscoverX) KINOMEscan; Cerep
Outline: as §1

PIK3CA = target: T29, PIK3CA (Homo sapiens, UniProt P42336)
T29 construct: purchased Ambit (DiscoverX) KINOMEscan; Cerep
T29 sequence (P42336 whole entry): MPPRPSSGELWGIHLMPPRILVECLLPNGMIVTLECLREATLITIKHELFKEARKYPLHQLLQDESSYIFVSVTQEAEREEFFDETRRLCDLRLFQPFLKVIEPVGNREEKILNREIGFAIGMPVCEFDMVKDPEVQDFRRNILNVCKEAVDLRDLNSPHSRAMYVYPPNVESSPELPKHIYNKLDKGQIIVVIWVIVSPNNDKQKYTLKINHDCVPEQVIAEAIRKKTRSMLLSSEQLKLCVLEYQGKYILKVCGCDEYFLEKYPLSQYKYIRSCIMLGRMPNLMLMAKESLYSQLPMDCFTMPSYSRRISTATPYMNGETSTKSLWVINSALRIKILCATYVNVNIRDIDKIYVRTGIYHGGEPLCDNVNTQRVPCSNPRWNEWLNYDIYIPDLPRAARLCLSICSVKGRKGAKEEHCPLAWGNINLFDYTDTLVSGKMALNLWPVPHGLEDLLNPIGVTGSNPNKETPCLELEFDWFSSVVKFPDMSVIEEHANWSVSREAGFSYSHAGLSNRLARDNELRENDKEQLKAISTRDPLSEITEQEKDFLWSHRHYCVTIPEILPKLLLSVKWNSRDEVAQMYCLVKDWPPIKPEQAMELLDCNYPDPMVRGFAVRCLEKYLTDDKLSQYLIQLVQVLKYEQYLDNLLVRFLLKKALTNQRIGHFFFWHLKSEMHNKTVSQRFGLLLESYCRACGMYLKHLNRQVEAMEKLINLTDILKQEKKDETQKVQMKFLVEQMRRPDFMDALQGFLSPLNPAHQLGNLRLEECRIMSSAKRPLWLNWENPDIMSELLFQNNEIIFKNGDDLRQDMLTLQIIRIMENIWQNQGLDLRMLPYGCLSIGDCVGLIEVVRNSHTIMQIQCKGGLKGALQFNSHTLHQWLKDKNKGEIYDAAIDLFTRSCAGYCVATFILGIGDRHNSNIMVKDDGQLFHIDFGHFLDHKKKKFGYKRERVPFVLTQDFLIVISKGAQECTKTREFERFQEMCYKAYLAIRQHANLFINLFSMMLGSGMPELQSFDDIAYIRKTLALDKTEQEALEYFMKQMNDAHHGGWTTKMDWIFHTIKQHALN
Outline: as §1

PIK3Cd = target: T30, PIK3Cd (Homo sapiens, UniProt O00329)
T30 construct: purchased Ambit (DiscoverX) KINOMEscan; Cerep
Outline: as §1

RIOK3 = target: T31, RIOK3 (Homo sapiens, UniProt O14730)
T31 construct: purchased Ambit (DiscoverX) KINOMEscan; Cerep
T31 sequence (O14730 whole entry): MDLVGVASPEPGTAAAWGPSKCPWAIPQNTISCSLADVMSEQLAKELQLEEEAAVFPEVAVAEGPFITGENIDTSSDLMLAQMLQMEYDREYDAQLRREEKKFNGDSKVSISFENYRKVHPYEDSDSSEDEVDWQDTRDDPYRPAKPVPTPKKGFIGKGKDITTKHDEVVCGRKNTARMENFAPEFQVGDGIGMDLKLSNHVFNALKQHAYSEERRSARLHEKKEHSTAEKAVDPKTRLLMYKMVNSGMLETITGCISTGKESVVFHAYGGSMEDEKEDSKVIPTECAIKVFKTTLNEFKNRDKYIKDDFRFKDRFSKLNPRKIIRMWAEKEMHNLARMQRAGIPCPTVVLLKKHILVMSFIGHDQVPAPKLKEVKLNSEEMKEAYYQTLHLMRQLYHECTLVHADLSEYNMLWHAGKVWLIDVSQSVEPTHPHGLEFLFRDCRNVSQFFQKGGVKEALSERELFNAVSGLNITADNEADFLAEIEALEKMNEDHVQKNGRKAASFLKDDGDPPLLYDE
Outline: as §1

SRPK3 = target: T32, SRPK3 (Homo sapiens, UniProt Q9UPE1)
T32 construct: purchased Ambit (DiscoverX) KINOMEscan; Cerep
Outline: as §1

STK39 = target: T33, STK39 (Homo sapiens, UniProt Q9UEW8)
T33 construct: purchased Ambit (DiscoverX) KINOMEscan; Cerep
Outline: as §1

ULK1 = target: T34, ULK1 (Homo sapiens, UniProt O75385)
T34 construct: purchased Ambit (DiscoverX) KINOMEscan; Cerep
Outline: as §1

p38-beta = target: T35, p38-beta (Homo sapiens, UniProt Q15759)
T35 construct: purchased Ambit (DiscoverX) KINOMEscan; Cerep
T35 sequence (Q15759 whole entry): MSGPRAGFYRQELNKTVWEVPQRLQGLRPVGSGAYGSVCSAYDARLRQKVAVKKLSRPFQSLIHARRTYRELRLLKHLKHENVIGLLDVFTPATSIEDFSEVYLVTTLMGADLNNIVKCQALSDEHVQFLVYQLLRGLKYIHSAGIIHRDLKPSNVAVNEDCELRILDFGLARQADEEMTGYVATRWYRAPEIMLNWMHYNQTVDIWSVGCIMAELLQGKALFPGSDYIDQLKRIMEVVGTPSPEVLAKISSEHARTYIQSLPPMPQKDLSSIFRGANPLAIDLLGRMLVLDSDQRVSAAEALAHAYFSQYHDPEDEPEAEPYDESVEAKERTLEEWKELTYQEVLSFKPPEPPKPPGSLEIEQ
Outline: as §1

CCCCN1CCN(C(=N)c2cccc(NC(=O)Nc3ccc(S(=O)(=O)NCc4ccc(S(N)(=O)=O)cc4)cc3)c2)CC1 [SC81458, 4-(3-(3-((4-butylpiperazin-1-yl)(imino)methyl)phenyl)ureido)-N-(4-sulfamoylbenzyl) benzenesulfonamide]
remaining binding at 10 µM (ABL1(F317L)): 100%
remaining binding at 10 µM (AMPK-alpha2): 96%
remaining binding at 10 µM (ANKK1): 99%
remaining binding at 10 µM (BLK): 100%
remaining binding at 10 µM (BRSK2): 100%
remaining binding at 10 µM (BTK): 100%
remaining binding at 10 µM (CAMK1g): 98%
remaining binding at 10 µM (CDK3): 100%
remaining binding at 10 µM (CDKL3): 98%
remaining binding at 10 µM (DAPK3): 100%
remaining binding at 10 µM (DDR2): 100%
remaining binding at 10 µM (EGFR(G719S)): 100%
remaining binding at 10 µM (EPHB3): 98%
remaining binding at 10 µM (FER): 100%
remaining binding at 10 µM (GAK): 92%
remaining binding at 10 µM (HCK): 100%
remaining binding at 10 µM (LATS2): 100%
remaining binding at 10 µM (LCK): 100%
remaining binding at 10 µM (MAP3K15): 100%
remaining binding at 10 µM (MAP4K4): 100%
remaining binding at 10 µM (MARK1): 100%
remaining binding at 10 µM (MEK1): 100%
remaining binding at 10 µM (MINK): 95%
remaining binding at 10 µM (MRCKB): 99%
remaining binding at 10 µM (MST2): 100%
remaining binding at 10 µM (MUSK): 95%
remaining binding at 10 µM (NLK): 95%
remaining binding at 10 µM (PAK7): 100%
remaining binding at 10 µM (PIK3CA): 83%
remaining binding at 10 µM (PIK3Cd): 73%
remaining binding at 10 µM (RIOK3): 77%
remaining binding at 10 µM (SRPK3): 83%
remaining binding at 10 µM (STK39): 57%
remaining binding at 10 µM (ULK1): 100%
remaining binding at 10 µM (p38-beta): 100%
